From PubChem BioAssay AID1259411 (Chemical Carcinogenesis Research Information System (CCRIS), 2018)
Activity calls are given as the source filed them. The rule behind the calls is not given here.

Test system: rodent carcinogenicity bioassays, tumor incidence
Experiment: CCRIS carcinogenicity studies
Procedure, shortened: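 Archive of carcinogenicity, mutagenicity, tumor promotion and tumor inhibition results drawn from journals, NCI reports and other sources, expert-reviewed; covers 1985-2011 and is no longer updated.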

What does the source list for `Oc1c(Cl)c(Cl)c(Cl)c(Cl)c1Cl`?
carcinogen call (Species: MOUSE, Strain/Sex: B6C3F1/FEMALE, Route: ORAL, Dose: 0, 100, 200, 600 PPM DOWCIDE EC-7 IN FEED FOR 103 WK (STUDY DURATION: 103 WK), Dose: 0, 100, 200, 600 PPM DOWCIDE EC-7 IN FEED FOR 103 WK (STUDY DURATION: 103 WK), Tumor Site: Type of Lesion: ADRENAL GLAND/MEDULLA: PHEOCHROMOCYTOMA: ADRENAL GLAND/MEDULLA: PHEOCHROMOCYTOMA OR MALIGNANT PHEOCHROMOCYTOMA, CIRCULAT): active; positive; carcinogen call (Species: MOUSE, Strain/Sex: B6C3F1/FEMALE, Route: ORAL, Dose: 0, 100, 200 PPM TECHNICAL GRADE PENTACHLOROPHENOL IN FEED FOR 103 WK (STUDY DURATION: 103 WK), Dose: 0, 100, 200 PPM TECHNICAL GRADE PENTACHLOROPHENOL IN FEED FOR 103 WK (STUDY DURATION: 103 WK), Tumor Site: Type of Lesion: LIVER: HEPATOCELLULAR ADENOMA OR CARCINOMA, CIRCULATORY SYSTEM: HEMANGIOSARCOMA): active; positive; carcinogen call (Species: MOUSE, Strain/Sex: B6C3F1/MALE, Route: ORAL, Dose: 0, 100, 200, 600 PPM DOWCIDE EC-7 IN FEED FOR 103 WK (STUDY DURATION: 103 WK), Dose: 0, 100, 200, 600 PPM DOWCIDE EC-7 IN FEED FOR 103 WK (STUDY DURATION: 103 WK), Tumor Site: Type of Lesion: ADRENAL GLAND/MEDULLA: PHEOCHROMOCYTOMA, ADRENAL GLAND/MEDULLA: PHEOCHROMOCYTOMA OR MALIGNANT PHEOCHROMOCYTOMA, LIVER: H, Tumor Site: Type of Lesion: ADRENAL GLAND/MEDULLA: PHEOCHROMOCYTOMA, ADRENAL GLAND/MEDULLA: PHEOCHROMOCYTOMA OR MALIGNANT PHEOCHROMOCYTOMA, LIVER: H): active; positive; carcinogen call (Species: MOUSE, Strain/Sex: B6C3F1/MALE, Route: ORAL, Dose: 0, 100, 200 PPM TECHNICAL GRADE PENTACHLOROPHENOL IN FEED FOR 103 WK (STUDY DURATION: 103 WK), Dose: 0, 100, 200 PPM TECHNICAL GRADE PENTACHLOROPHENOL IN FEED FOR 103 WK (STUDY DURATION: 103 WK), Tumor Site: Type of Lesion: ADRENAL GLAND/MEDULLA: PHEOCHROMOCYTOMA, LIVER: HEPATOCELLULAR ADENOMA, LIVER: HEPATOCELLULAR ADENOMA OR CARCINOMA, Tumor Site: Type of Lesion: ADRENAL GLAND/MEDULLA: PHEOCHROMOCYTOMA, LIVER: HEPATOCELLULAR ADENOMA, LIVER: HEPATOCELLULAR ADENOMA OR CARCINOMA): active; positive; carcinogen call (Species: MOUSE, Strain/Sex: B6C3F1/MALE, Route: ORAL, Dose: 0, 1200 PPM IN DIET FOR 13 WK (STUDY DURATION: 42 WK)): inactive; negative; carcinogen call (Species: RAT, Strain/Sex: F344/N/FEMALE, Route: ORAL, Dose: 0, 200, 400, 600 PPM IN DIET FOR 105 WK (STUDY DURATION: 105 WK), Dose: 0, 200, 400, 600 PPM IN DIET FOR 105 WK (STUDY DURATION: 105 WK)): inactive; negative; carcinogen call (Species: RAT, Strain/Sex: F344/N/FEMALE, Route: ORAL, Dose: 0, 1000 PPM IN DIET FOR 52 WK (STUDY DURATION: 105 WK)): inactive; negative; carcinogen call (Species: RAT, Strain/Sex: F344/N/MALE, Route: ORAL, Dose: 0, 200, 400, 600 PPM IN DIET FOR 105 WK (STUDY DURATION: 105 WK), Dose: 0, 200, 400, 600 PPM IN DIET FOR 105 WK (STUDY DURATION: 105 WK)): inactive; negative; carcinogen call (Species: RAT, Strain/Sex: F344/N/MALE, Route: ORAL, Dose: 0, 1000 PPM IN DIET FOR 52 WK (STUDY DURATION: 105 WK), Tumor Site: Type of Lesion: SKIN: KERATOACANTHOMA): active; positive

`CC1=C[C@H]2O[C@@H]3[C@H](O)C[C@](C)([C@@]2(CO)[C@H](O)C1=O)[C@]31CO1` was tested. Which carcinogen call (Species: MOUSE, Strain/Sex: B6C3F1/FEMALE, Route: ORAL, Dose: 0, 1, 5, 10 PPM IN DIET FOR 2 YR (STUDY DURATION: 2 YR), Dose: 0, 1, 5, 10 PPM IN DIET FOR 2 YR (STUDY DURATION: 2 YR)) did it give?
Its carcinogen call is “inactive; negative”.

What about the carcinogen call (Species: MOUSE, Strain/Sex: B6C3F1/MALE, Route: ORAL, Dose: 0, 1, 5, 10 PPM IN DIET FOR 2 YR (STUDY DURATION: 2 YR), Dose: 0, 1, 5, 10 PPM IN DIET FOR 2 YR (STUDY DURATION: 2 YR)) of the same compound?
Its carcinogen call is “inactive; negative”.

What does the source list for `C=C(F)F`?
carcinogen call (Species: RAT, Strain/Sex: SPRAGUE-DAWLEY/FEMALE, Route: GAVAGE, Dose: 0, 4.12, 8.25 MG/KG BW IN OLIVE OIL 1/D 4-5 D/WK FOR 52 WK (STUDY DURATION: LIFETIME), Dose: 0, 4.12, 8.25 MG/KG BW IN OLIVE OIL 1/D 4-5 D/WK FOR 52 WK (STUDY DURATION: LIFETIME), Tumor Site: Type of Lesion: [BRAIN WAS ONLY SITE EVALUATED]): inactive; negative; carcinogen call (Species: RAT, Strain/Sex: SPRAGUE-DAWLEY/MALE, Route: GAVAGE, Dose: 0, 4.12, 8.25 MG/KG BW IN OLIVE OIL 1/D 4-5 D/WK FOR 52 WK (STUDY DURATION: LIFETIME), Dose: 0, 4.12, 8.25 MG/KG BW IN OLIVE OIL 1/D 4-5 D/WK FOR 52 WK (STUDY DURATION: LIFETIME), Tumor Site: Type of Lesion: [BRAIN WAS ONLY SITE EVALUATED]): inactive; negative

What does the source list for `O=[N+]([O-])c1cc([N+](=O)[O-])c2ccc3cccc4ccc1c2c43`?
carcinogen call (Species: RAT, Strain/Sex: STRAIN CD/FEMALE, Route: INTRAGASTRIC, Dose: 10 UMOL IN DMSO 3/WK FOR 4 WK (TOTAL DOSE: 16 UMOL/RAT) (STUDY DURATION: 78 WK), Tumor Site: Type of Lesion: ADRENAL GLAND: CORTICAL ADENOMA, PITUITARY GLAND: CARCINOMA): active; positive; carcinogen call (Species: RAT, Strain/Sex: STRAIN CD/FEMALE, Route: INTRAPERITONEAL, Dose: 0, 10 UMOL IN DMSO 3/WK FOR 4 WK (TOTAL DOSE: 16 UMOL/RAT) (STUDY DURATION: 78 WK), Tumor Site: Type of Lesion: MAMMARY GLAND: ADENOCARCINOMA, FIBROADENOMA, ADENOMA): active; positive; carcinogen call (Species: RAT, Strain/Sex: STRAIN-CD/FEMALE, Route: SUBCUTANEOUS, Dose: 0, 6.3 UMOL (TOTAL DOSE) ADMINISTERED OVER 8 WK BEGINNING ON DAY OF BIRTH (STUDY DURATION: 67 WK), Tumor Site: Type of Lesion: INTEGUMENTARY SYSTEM: MALIGNANT FIBROUS HISTIOCYTOMA): active; positive

Which carcinogen call (Species: MOUSE, Strain/Sex: B6C3F1/FEMALE, Route: ORAL, Dose: 0, 295, 754 PPM IN DIET, TWA, Dose: 0, 295, 754 PPM IN DIET, TWA) does the source give for `CCCCCCCCS(=O)C(C)Cc1ccc2c(c1)OCO2` (centres undefined) here?
Its carcinogen call is “inactive; negative”.

What about the carcinogen call (Species: MOUSE, Strain/Sex: B6C3F1/MALE, Route: ORAL, Dose: 0, 350, 700 PPM IN DIET, Dose: 0, 350, 700 PPM IN DIET, Tumor Site: Type of Lesion: LIVER: HEPATOCELLULAR CARCINOMA) of the same compound?
The carcinogen call was “active; positive”.

And the carcinogen call (Species: RAT, Strain/Sex: F344/FEMALE, Route: ORAL, Dose: 0, 3000, 6000 PPM IN DIET, Dose: 0, 3000, 6000 PPM IN DIET)?
Its carcinogen call is “inactive; negative”.

And the carcinogen call (Species: RAT, Strain/Sex: F344/MALE, Route: ORAL, Dose: 0, 1500, 3000 PPM IN DIET, Dose: 0, 1500, 3000 PPM IN DIET)?
The carcinogen call was “inactive; negative”.

For `S=P(N1CC1)(N1CC1)N1CC1`, which carcinogen call (Species: MOUSE, Strain/Sex: B6C3F1/FEMALE, Route: INTRAPERITONEAL, Dose: 0, 1.15, 2.3 MG/KG 3/WK FOR 43-52 WK (STUDY DURATION: 86-87 WK), Dose: 0, 1.15, 2.3 MG/KG 3/WK FOR 43-52 WK (STUDY DURATION: 86-87 WK), Tumor Site: Type of Lesion: HEMATOPOIETIC SYSTEM (LEUKEMIA): LYMPHOCYTIC LEUKEMIA, LYMPHATIC SYSTEM: LYMPHOMA) is on record?
The carcinogen call was “active; positive”.

And the carcinogen call (Species: MOUSE, Strain/Sex: B6C3F1/MALE, Route: INTRAPERITONEAL, Dose: 0, 1.15, 2.3 MG/KG 3/WK FOR 52 WK (STUDY DURATION: 56-87 WK), Dose: 0, 1.15, 2.3 MG/KG 3/WK FOR 52 WK (STUDY DURATION: 56-87 WK), Tumor Site: Type of Lesion: INTEGUMENTARY SYSTEM (SKIN): SQUAMOUS CELL CARCINOMA, HEMATOPOIETIC SYSTEM (LEUKEMIA), LYMPHATIC SYSTEM: LYMPHOMA, EAR (, Tumor Site: Type of Lesion: INTEGUMENTARY SYSTEM (SKIN): SQUAMOUS CELL CARCINOMA, HEMATOPOIETIC SYSTEM (LEUKEMIA), LYMPHATIC SYSTEM: LYMPHOMA, EAR ()?
The carcinogen call was “active; positive”.

What about the carcinogen call (Species: RAT, Strain/Sex: SPRAGUE-DAWLEY/FEMALE, Route: INTRAPERITONEAL, Dose: 0, 0.7, 1.4, 2.8 MG/KG 3/WK FOR 21-52 WK (STUDY DURATION: 21-87 WK), Dose: 0, 0.7, 1.4, 2.8 MG/KG 3/WK FOR 21-52 WK (STUDY DURATION: 21-87 WK), Tumor Site: Type of Lesion: MAMMARY GLAND: ADENOCARCINOMA, PITUITARY GLAND: CHROMOPHOBE ADENOMA) of the same compound?
The carcinogen call was “active; positive”.

What about the carcinogen call (Species: RAT, Strain/Sex: SPRAGUE-DAWLEY/MALE, Route: INTRAPERITONEAL, Dose: 0, 0.7, 1.4, 2.8 MG/KG 3/WK FOR 19-52 WK (STUDY DURATION: 19-87 WK), Dose: 0, 0.7, 1.4, 2.8 MG/KG 3/WK FOR 19-52 WK (STUDY DURATION: 19-87 WK), Tumor Site: Type of Lesion: INTEGUMENTARY SYSTEM (SKIN): SQUAMOUS CELL CARCINOMA, INTEGUMENTARY SYSTEM (SUBCUTANEOUS TISSUE): SARCOMA, HEMATOPOIETIC, Tumor Site: Type of Lesion: INTEGUMENTARY SYSTEM (SKIN): SQUAMOUS CELL CARCINOMA, INTEGUMENTARY SYSTEM (SUBCUTANEOUS TISSUE): SARCOMA, HEMATOPOIETIC) of the same compound?
The carcinogen call was “active; positive”.
